Laboratory results: article PMC12455437, “Bispecific DNA‐Peptide Probes for Targeting Receptor Pairs on Live Cells” (Angewandte Chemie (International Ed. in English), 2025)
Where a SMILES comes first, the peptide text is derived from it. [ ]: non-standard residue; d: D form. The star is where a group is joined. Dolaproine = CO[C@@H]([C@@H]1CCCN1)[C@@H](C)C(=O)O; Dil = CC[C@H](C)[C@H](NC)[C@@H](CC(=O)O)OC; X1 = C[C@@H](N*)[C@@H](O)c1ccccc1; NMeV = CN[C@H](C(=O)O)C(C)C

Tested on: HEK‐293 cells (VEGFR2−, αvβ3−)
Assay: AlamarBlue cell viability, HEK-293
Format: cell-based
Conditions: 200 nM MMAE in free form, 10 min in PBS, 37 °C, 10% Alamar blue 6 h; HUVEC, HEK-293, HCT-116, A498 compared (Figure S44)
Description: Figure 6 Cytotoxicity of cathepsin B‐cleavable vcMMAE‐DNA‐peptide complexes LC40 and components. a) Viability of HUVECs after treatment with unlabeled DNA complex 2), vcMMAE‐template DNA 3), single‐stranded monovalent DNA‐peptide conjugates 4 and 5), heterobivalent LC40 lacking cytotoxic payload 6), both i) single‐stranded monovalent DNA‐peptide conjugates followed by ii) addition of vcMMAE‐template 7), with i) unlabeled DNA complex followed by addition of ii) both single‐stranded monovalent DNA‐peptide conjugates and subsequently iii) vcMMAE‐template 8 and 9), vcMMAE‐LC40 at varied concentrations 10–15) or with unlabeled DNA complex prior to addition of vcMMAE‐LC40 16 and 17). […] Flow cytometric analysis of HUVECs mixed with e) eGFP‐expressing HEK‐293 cells or f) anti‐EpCAM antibody‐stained HCT‐116 cells assessed by dead cell staining. […]
The collected HUVEC cells were washed twice with OptiMEM and added to 2.4 mL OptiMEM in T25 flasks.The siRNA-lipofectamine complex (600 µL) was added to 2.4 mL HUVEC cells, and the mixture was incubated at 37°C, 5% CO 2 for 4 h. […] The transfection efficiency was calculated by flow cytometry and comparing the signal of anti-integrin antibody (A488) from HUVEC cells transfected with siRNA + lipofectamine with that from the cells with mock transfection (Fig. S39). […]

CC[C@H](C)[C@@H]([C@@H](CC(=O)N1CCC[C@H]1[C@H](OC)[C@@H](C)C(=O)N[C@H](C)[C@@H](O)c1ccccc1)OC)N(C)C(=O)[C@@H](NC(=O)[C@@H](NC)C(C)C)C(C)C [MMAE, monomethyl auristatin E] (H-[NMeV]V[Dil][Dolaproine]-X1)
cytotoxic effect of MMAE in free form, comparison of cell lines: most vulnerable
